Experimental data: ChEMBL document CHEMBL4390652, “Design, biological evaluation and X-ray crystallography of nanomolar multifunctional ligands targeting simultaneously acetylcholinesterase and glycogen synthase kinase-3” (Eur J Med Chem, 2019)

Assays:
[1] = target: Serine/threonine-protein kinase haspin (Homo sapiens) (UniProt Q8TF76); experiment: Binding affinity to wild-type human partial length HASPIN (I452 to K798 residues) expressed in mammalian expression system assessed as residual binding level at 10 uM by Kinomescan method relative to control
Chain of Serine/threonine-protein kinase haspin (Homo sapiens) (Q8TF76 whole entry, the tested form may be a part): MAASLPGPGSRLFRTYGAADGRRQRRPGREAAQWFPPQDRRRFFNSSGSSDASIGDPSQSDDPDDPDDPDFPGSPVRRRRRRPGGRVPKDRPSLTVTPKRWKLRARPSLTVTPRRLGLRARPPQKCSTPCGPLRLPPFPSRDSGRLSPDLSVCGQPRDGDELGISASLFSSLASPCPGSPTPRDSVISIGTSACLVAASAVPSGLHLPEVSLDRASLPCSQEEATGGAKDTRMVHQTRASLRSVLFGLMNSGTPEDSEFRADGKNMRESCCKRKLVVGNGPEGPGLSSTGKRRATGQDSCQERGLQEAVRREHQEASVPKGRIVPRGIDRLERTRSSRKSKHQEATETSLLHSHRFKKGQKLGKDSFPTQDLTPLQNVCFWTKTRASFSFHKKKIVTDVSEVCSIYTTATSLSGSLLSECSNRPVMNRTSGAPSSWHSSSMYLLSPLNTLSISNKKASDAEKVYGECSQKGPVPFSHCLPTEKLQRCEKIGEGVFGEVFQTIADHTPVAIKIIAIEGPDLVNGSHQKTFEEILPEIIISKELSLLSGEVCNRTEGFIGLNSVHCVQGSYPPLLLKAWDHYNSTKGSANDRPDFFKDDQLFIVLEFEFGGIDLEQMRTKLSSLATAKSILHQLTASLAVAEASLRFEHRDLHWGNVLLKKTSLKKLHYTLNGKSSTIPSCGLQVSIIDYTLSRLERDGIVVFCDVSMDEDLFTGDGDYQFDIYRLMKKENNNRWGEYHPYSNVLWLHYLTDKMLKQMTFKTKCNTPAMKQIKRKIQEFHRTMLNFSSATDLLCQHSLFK

[2] = target: Cyclin-dependent kinase-like 5 (Homo sapiens) (UniProt O76039); experiment: Binding affinity to wild-type human partial length CDKL5 (M1 to S337 residues) expressed in mammalian expression system assessed as residual binding level at 10 uM by Kinomescan method relative to control
[3] = target: cAMP-dependent protein kinase catalytic subunit beta (Homo sapiens) (UniProt P22694); experiment: Binding affinity to wild-type human full length PKAC-beta (M1 to F351 residues) expressed in bacterial expression system assessed as residual binding level at 10 uM by Kinomescan method relative to control
[4] = target: Mitogen-activated protein kinase kinase kinase kinase 4 (Homo sapiens) (UniProt O95819); experiment: Binding affinity to wild-type human partial length MAP4K4 (M1 to R310 residues) expressed in bacterial expression system assessed as residual binding level at 10 uM by Kinomescan method relative to control
Chain of Mitogen-activated protein kinase kinase kinase kinase 4 (Homo sapiens) (O95819 2-1239 limits assumed): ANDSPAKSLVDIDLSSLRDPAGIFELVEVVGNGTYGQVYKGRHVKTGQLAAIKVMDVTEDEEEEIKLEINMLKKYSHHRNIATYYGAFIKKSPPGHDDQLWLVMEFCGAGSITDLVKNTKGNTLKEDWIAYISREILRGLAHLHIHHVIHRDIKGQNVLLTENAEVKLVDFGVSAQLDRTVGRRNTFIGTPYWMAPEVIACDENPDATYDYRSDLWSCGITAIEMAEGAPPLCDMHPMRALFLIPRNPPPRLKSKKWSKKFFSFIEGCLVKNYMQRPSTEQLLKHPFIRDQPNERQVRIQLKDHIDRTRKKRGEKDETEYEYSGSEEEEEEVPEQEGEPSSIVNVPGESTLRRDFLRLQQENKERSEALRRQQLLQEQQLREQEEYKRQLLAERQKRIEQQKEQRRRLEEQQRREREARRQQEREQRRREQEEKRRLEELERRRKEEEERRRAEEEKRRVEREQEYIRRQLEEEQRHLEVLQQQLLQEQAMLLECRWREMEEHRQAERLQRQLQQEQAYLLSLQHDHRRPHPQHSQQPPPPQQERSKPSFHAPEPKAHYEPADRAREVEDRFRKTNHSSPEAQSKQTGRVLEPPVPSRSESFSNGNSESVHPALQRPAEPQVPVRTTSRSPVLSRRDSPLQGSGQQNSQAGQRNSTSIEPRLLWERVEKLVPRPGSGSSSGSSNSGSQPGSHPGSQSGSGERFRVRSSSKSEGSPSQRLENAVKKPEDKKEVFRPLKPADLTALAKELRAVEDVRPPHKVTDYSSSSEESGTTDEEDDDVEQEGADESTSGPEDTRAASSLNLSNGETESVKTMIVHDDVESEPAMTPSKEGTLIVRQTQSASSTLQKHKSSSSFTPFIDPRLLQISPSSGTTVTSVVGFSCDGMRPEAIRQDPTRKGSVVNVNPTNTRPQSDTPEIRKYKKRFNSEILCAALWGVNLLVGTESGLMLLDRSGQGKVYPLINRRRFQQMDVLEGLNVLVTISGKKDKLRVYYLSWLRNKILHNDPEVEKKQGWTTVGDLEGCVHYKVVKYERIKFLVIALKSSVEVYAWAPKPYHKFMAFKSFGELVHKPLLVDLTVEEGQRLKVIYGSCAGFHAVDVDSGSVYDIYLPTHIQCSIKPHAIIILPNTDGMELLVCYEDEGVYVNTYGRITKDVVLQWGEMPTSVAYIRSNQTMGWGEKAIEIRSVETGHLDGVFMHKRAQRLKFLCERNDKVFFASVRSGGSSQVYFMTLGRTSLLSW

[5] = target: Tyrosine-protein kinase CSK (Homo sapiens) (UniProt P41240); experiment: Binding affinity to wild-type human full length CSK (M1 to L450 residues) expressed in bacterial expression system assessed as residual binding level at 10 uM by Kinomescan method relative to control
[6] = target: Cyclin-dependent kinase 17 (Homo sapiens) (UniProt Q00537); experiment: Binding affinity to wild-type human full length PCTK2 (M1 to F523 residues) expressed in bacterial expression system assessed as residual binding level at 10 uM by Kinomescan method relative to control
[7] = target: Serine/threonine-protein kinase ULK1 (Homo sapiens) (UniProt O75385); experiment: Binding affinity to wild-type human partial length ULK1 (M1 to T309 residues) expressed in mammalian expression system assessed as residual binding level at 10 uM by Kinomescan method relative to control
Chain of Serine/threonine-protein kinase ULK1 (Homo sapiens) (O75385 whole entry, the tested form may be a part): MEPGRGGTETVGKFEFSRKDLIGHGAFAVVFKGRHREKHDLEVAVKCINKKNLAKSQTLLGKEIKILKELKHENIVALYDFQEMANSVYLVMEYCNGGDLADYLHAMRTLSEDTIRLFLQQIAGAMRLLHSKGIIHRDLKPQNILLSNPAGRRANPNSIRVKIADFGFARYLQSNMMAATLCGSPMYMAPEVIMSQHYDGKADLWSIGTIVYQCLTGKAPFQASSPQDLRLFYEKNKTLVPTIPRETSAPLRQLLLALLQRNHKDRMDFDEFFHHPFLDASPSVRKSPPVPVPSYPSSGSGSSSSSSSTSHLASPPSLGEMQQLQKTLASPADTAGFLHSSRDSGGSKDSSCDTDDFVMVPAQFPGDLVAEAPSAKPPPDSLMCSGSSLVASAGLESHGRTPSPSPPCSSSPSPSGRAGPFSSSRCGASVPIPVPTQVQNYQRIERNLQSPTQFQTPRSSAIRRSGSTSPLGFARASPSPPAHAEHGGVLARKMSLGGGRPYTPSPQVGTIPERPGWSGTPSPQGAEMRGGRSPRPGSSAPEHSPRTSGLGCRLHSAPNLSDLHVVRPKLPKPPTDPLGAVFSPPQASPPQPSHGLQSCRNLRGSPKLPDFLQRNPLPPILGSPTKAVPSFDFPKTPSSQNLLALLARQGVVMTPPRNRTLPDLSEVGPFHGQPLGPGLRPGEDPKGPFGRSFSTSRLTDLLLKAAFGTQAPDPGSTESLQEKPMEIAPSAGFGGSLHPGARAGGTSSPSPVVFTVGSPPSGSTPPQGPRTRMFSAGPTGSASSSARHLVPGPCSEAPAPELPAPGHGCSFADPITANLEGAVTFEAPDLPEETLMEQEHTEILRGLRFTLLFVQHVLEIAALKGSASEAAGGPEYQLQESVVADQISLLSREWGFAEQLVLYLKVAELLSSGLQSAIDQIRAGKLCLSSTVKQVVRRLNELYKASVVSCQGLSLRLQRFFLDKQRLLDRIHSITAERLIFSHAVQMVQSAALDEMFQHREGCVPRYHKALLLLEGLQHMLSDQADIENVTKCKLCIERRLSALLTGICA

[8] = target: Protein kinase C iota type (Homo sapiens) (UniProt P41743); experiment: Binding affinity to wild-type human partial length PRKCI (H215 to V587 residues) expressed in mammalian expression system assessed as residual binding level at 10 uM by Kinomescan method relative to control
Chain of Protein kinase C iota type (Homo sapiens) (P41743 whole entry, the tested form may be a part): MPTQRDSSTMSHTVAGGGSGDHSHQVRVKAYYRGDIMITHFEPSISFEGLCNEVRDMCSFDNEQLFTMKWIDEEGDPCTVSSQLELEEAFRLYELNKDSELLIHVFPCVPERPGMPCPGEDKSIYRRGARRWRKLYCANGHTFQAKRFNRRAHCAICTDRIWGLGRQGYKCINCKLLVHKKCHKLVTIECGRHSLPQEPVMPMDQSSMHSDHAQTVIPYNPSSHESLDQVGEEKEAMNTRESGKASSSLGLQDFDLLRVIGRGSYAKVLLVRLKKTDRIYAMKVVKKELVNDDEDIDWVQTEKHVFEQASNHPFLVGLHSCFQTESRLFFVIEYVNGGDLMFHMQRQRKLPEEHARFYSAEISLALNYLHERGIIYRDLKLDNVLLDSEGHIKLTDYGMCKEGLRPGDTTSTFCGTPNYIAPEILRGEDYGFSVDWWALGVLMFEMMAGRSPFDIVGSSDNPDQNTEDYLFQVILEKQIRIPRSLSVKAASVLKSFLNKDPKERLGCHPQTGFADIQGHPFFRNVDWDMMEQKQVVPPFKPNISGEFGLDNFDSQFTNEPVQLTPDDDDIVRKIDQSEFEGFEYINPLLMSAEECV

[9] = target: Insulin receptor-related protein (Homo sapiens) (UniProt P14616); experiment: Binding affinity to wild-type human partial length INSRR (R950 to E1278 residues) expressed in bacterial expression system assessed as residual binding level at 10 uM by Kinomescan method relative to control
[10] = target: Cyclin-dependent kinase-like 2 (Homo sapiens) (UniProt Q92772); experiment: Binding affinity to wild-type human partial length CDKL2 (M1 to D327 residues) expressed in bacterial expression system assessed as residual binding level at 10 uM by Kinomescan method relative to control
Chain of Cyclin-dependent kinase-like 2 (Homo sapiens) (Q92772 whole entry, the tested form may be a part): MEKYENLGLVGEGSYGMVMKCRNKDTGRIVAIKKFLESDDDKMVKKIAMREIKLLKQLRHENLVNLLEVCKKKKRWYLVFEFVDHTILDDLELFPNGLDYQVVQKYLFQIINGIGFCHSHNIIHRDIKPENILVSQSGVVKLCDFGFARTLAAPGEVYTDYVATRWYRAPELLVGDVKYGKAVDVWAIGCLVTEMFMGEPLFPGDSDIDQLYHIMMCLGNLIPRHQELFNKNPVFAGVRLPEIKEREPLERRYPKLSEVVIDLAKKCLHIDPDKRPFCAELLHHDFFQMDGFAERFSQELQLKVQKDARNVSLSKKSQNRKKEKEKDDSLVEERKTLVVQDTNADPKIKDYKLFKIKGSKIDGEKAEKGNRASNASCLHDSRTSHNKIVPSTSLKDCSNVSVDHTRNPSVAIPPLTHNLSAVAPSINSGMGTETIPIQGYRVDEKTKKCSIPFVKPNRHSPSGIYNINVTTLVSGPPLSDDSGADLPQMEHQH

[11] = target: Dual serine/threonine and tyrosine protein kinase (Homo sapiens) (UniProt Q6XUX3); experiment: Binding affinity to wild-type human full length RIPK5 (M1 to T929 residues) expressed in mammalian expression system assessed as residual binding level at 10 uM by Kinomescan method relative to control
[12] = target: Calcium/calmodulin-dependent protein kinase type 1D (Homo sapiens) (UniProt Q8IU85); experiment: Binding affinity to wild-type human partial length CAMK1D (M1 to K299 residues) expressed in bacterial expression system assessed as residual binding level at 10 uM by Kinomescan method relative to control
Chain of Calcium/calmodulin-dependent protein kinase type 1D (Homo sapiens) (Q8IU85 whole entry, looked up, the tested form may be a part): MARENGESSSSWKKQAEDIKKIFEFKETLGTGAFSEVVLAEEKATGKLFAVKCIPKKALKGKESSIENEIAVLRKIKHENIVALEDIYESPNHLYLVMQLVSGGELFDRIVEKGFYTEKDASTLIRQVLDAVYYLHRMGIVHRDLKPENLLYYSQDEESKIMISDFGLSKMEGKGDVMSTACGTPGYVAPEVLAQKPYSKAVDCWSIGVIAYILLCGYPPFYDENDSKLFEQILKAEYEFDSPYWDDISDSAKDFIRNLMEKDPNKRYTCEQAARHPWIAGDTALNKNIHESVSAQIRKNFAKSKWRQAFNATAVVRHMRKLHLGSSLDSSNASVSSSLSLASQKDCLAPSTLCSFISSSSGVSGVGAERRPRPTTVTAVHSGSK

[13] = target: Dual specificity protein kinase CLK3 (Homo sapiens) (UniProt P49761); experiment: Binding affinity to wild-type human full length CLK3 (M1 to R490 residues) expressed in bacterial expression system assessed as residual binding level at 10 uM by Kinomescan method relative to control
Chain of Dual specificity protein kinase CLK3 (Homo sapiens) (P49761 whole entry, looked up, the tested form may be a part): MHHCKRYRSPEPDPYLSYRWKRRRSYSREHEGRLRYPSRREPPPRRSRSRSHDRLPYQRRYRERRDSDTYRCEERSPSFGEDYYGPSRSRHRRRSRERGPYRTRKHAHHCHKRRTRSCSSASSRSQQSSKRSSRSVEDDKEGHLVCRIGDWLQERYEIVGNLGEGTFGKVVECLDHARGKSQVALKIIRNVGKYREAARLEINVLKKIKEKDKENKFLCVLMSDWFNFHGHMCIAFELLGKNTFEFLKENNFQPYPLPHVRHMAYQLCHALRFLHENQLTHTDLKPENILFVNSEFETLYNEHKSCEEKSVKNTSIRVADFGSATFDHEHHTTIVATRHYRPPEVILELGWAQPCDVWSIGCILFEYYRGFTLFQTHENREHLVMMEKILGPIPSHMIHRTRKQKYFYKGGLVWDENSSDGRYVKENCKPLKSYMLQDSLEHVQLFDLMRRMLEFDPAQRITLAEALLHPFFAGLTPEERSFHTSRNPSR

[14] = tested on: Epidermal growth factor receptor (Homo sapiens), P00533 [UNDEFINED MUTATION]; experiment: Binding affinity to human partial length EGFR L747-S752del/P753S mutant expressed in bacterial expression system assessed as residual binding level at 10 uM by Kinomescan method relative to control
[15] = target: Mitogen-activated protein kinase 14 (Homo sapiens) (UniProt Q16539); experiment: Binding affinity to wild-type human full length p38-alpha (M1 to S360 residues) expressed in bacterial expression system assessed as residual binding level at 10 uM by Kinomescan method relative to control
[16] = target: Receptor tyrosine-protein kinase erbB-4 (Homo sapiens) (UniProt Q15303); experiment: Binding affinity to wild-type human partial length ERBB4 (L690 to K994 residues) expressed in bacterial expression system assessed as residual binding level at 10 uM by Kinomescan method relative to control
[17] = target: Serine/threonine-protein kinase WNK2 (Homo sapiens) (UniProt Q9Y3S1); experiment: Binding affinity to wild-type human partial length WNK2 (V47 to D482 residues) expressed in mammalian expression system assessed as residual binding level at 10 uM by Kinomescan method relative to control
[18] = target: Ribosomal protein S6 kinase alpha-5 (Homo sapiens) (UniProt O75582); experiment: Binding affinity to wild-type human partial length N-terminal RPS6KA5 kinase domain 1 expressed in bacterial expression system assessed as residual binding level at 10 uM by Kinomescan method relative to control

## O=C(Nc1cc(-c2cn(CCNc3c4c(nc5ccccc35)CCCC4)nn2)ccn1)Nc1cccc2c1C1CCCCN1C2=O (racemic)
[1]
  Activity: 3.9%
[2]
  Activity: 0.35%
[3]
  Activity: 99%
[4]
  Activity: 97%
[5]
  Activity: 77%
[6]
  Activity: 4.2%
[7]
  Activity: 38%
[8]
  Activity: 100%
[9]
  Activity: 68%
[10]
  Activity: 0.1%
[11]
  Activity: 49%
[12]
  Activity: 48%
[13]
  Activity: 100%
[14]
  Activity: 80%
[15]
  Activity: 91%
[16]
  Activity: 87%
[17]
  Activity: 100%
[18]
  Activity: 55%
